In brackets after ≈: the same amount, converted by molar mass.
Test: solubility in water at 25° C.
Format: physicochemical

solubility	solubility in water at 25° C.	SMILES
750 mg/mL (≈ 6690 mM)	–	O=C1CCC(=O)CC1 [1,4-cyclohexanedione]
–	≤ 0.5 mg/mL	CCC1(CO)COC2(CCC3(CC2)OCC(CC)(CO)CO3)OC1 (stereo not shown) [compound A]
–	≤ 0.5 mg/mL	CC1(CO)COC2(CCC3(CC2)OCC(C)(CO)CO3)OC1 (stereo not shown) [compound B]
–	≥ 100 mg/mL	CC(CO)(CO)CO [trimethylolethane]

Reference: patent US11261194B2, “Production method of diol” (MITSUBISHI GAS CHEMICAL COMPANY, INC., priority 2017, dated 2022)
